Holding throughout (assay): relative viability (nuclei count vs DMSO), 5 days (fraction); higher = more cells survive
Compound in the assay “BAY61-3606 + Bortezomib”: COC1=C(C=C(C=C1)C2=CC3=NC=CN3C(=N2)NC4=C(C=CC=N4)C(=O)N)OC [BAY61-3606] + CC(C)C[C@H](NC(=O)[C@H](Cc1ccccc1)NC(=O)c1cnccn1)B(O)O [Bortezomib] (partner 0.002 µM)
Put shortly: (§1)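 After 5 days of treatment, lung cancer cells in 1536-well plates were fixed and stained in a single step (final 0.05% Triton X-100, 1% formaldehyde, 1 ug/ml Hoechst) and their nuclei counted on 4× images. Treatment had been applied by pin tool the day after seeding as one drug alone or as a fixed anchor-drug dose with five library-drug doses (not always all listed) in √10 steps. Relative viability is the nuclei count of treated wells divided by that of vehicle wells, and values are medians of duplicate plates.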

Compound in the assay “BAY61-3606 + Crizotinib”: COC1=C(C=C(C=C1)C2=CC3=NC=CN3C(=N2)NC4=C(C=CC=N4)C(=O)N)OC [BAY61-3606] + C[C@@H](Oc1cc(-c2cnn(C3CCNCC3)c2)cnc1N)c1c(Cl)ccc(F)c1Cl [Crizotinib] (partner 1 µM)
The method in brief:
as §1

Compound in the assay “Doxorubicin + Bortezomib”: COc1cccc2c1C(=O)c1c(O)c3c(c(O)c1C2=O)C[C@@](O)(C(=O)CO)C[C@@H]3O[C@H]1C[C@H](N)[C@H](O)[C@H](C)O1 [Doxorubicin] + CC(C)C[C@H](NC(=O)[C@H](Cc1ccccc1)NC(=O)c1cnccn1)B(O)O [Bortezomib] (partner 0.002 µM)
The method in brief:
as §1

Compound in the assay “Doxorubicin + AZD7762”: COc1cccc2c1C(=O)c1c(O)c3c(c(O)c1C2=O)C[C@@](O)(C(=O)CO)C[C@@H]3O[C@H]1C[C@H](N)[C@H](O)[C@H](C)O1 [Doxorubicin] + NC(=O)Nc1cc(-c2cccc(F)c2)sc1C(=O)N[C@H]1CCCNC1 [AZD7762] (partner 0.2 µM)
Put shortly:
as §1

For 5 cell lines, relative viability results are on record in the supplement of paper PMC10307832.

On to EPLC-272H, for which the relative viability in the assay with BAY61-3606 + Bortezomib (first compound 0.02 µM) amounted to 1.01; in the assay with BAY61-3606 + Bortezomib (first compound 0.06325 µM), 0.931; in the assay with BAY61-3606 + Bortezomib (first compound 0.2 µM), 0.915; with BAY61-3606 + Bortezomib (first compound 0.6325 µM) it was 0.958; with BAY61-3606 + Bortezomib (first compound 2 µM), 0.951; with BAY61-3606 + Crizotinib (first compound 0.02 µM), 1.03. The relative viability in the assay with BAY61-3606 + Crizotinib (first compound 0.06325 µM) was determined as 0.762; with BAY61-3606 + Crizotinib (first compound 0.2 µM) it was 0.89; with BAY61-3606 + Crizotinib (first compound 0.6325 µM) it was 0.87; in the assay with BAY61-3606 + Crizotinib (first compound 2 µM), 0.811; in the assay with Doxorubicin + Bortezomib (first compound 0.001 µM), 0.827; with Doxorubicin + Bortezomib (first compound 0.003162 µM) it was 0.98. Moreover, the relative viability with Doxorubicin + Bortezomib (first compound 0.01 µM) came out at 0.897; with Doxorubicin + Bortezomib (first compound 0.03162 µM), 1.05; with Doxorubicin + Bortezomib (first compound 0.1 µM) it was 0.931; in the assay with Doxorubicin + AZD7762 (first compound 0.001 µM) it was 0.337; with Doxorubicin + AZD7762 (first compound 0.003162 µM), 0.182; in the assay with Doxorubicin + AZD7762 (first compound 0.01 µM) it was 0.164. The relative viability was determined as 0.221 with Doxorubicin + AZD7762 (first compound 0.03162 µM) and 0.241 with Doxorubicin + AZD7762 (first compound 0.1 µM).
Regarding NCI-H1975, the relative viability was determined as 0.427 with BAY61-3606 + Bortezomib (first compound 0.02 µM); 0.349 with BAY61-3606 + Bortezomib (first compound 0.06325 µM); 0.421 with BAY61-3606 + Bortezomib (first compound 0.2 µM); 0.395 with BAY61-3606 + Bortezomib (first compound 0.6325 µM); 0.244 in the assay with BAY61-3606 + Bortezomib (first compound 2 µM); 0.921 in the assay with BAY61-3606 + Crizotinib (first compound 0.02 µM). The relative viability with BAY61-3606 + Crizotinib (first compound 0.06325 µM) was determined as 0.947; with BAY61-3606 + Crizotinib (first compound 0.2 µM), 0.907; with BAY61-3606 + Crizotinib (first compound 0.6325 µM), 0.888; in the assay with BAY61-3606 + Crizotinib (first compound 2 µM) it was 0.585; with Doxorubicin + Bortezomib (first compound 0.001 µM), 0.433; with Doxorubicin + Bortezomib (first compound 0.003162 µM) it was 0.364. The relative viability was 0.321 with Doxorubicin + Bortezomib (first compound 0.01 µM); 0.226 with Doxorubicin + Bortezomib (first compound 0.03162 µM); 0.165 in the assay with Doxorubicin + Bortezomib (first compound 0.1 µM); 0.738 in the assay with Doxorubicin + AZD7762 (first compound 0.001 µM); 0.623 with Doxorubicin + AZD7762 (first compound 0.003162 µM); 0.764 with Doxorubicin + AZD7762 (first compound 0.01 µM). Besides, the values for the relative viability with Doxorubicin + AZD7762 (first compound 0.03162 µM) and with Doxorubicin + AZD7762 (first compound 0.1 µM) were 0.599 and 0.391, respectively.
Regarding NCI-H322M, the relative viability in the assay with BAY61-3606 + Bortezomib (first compound 0.02 µM) was 1.27; in the assay with BAY61-3606 + Bortezomib (first compound 0.06325 µM) it was 1.27; with BAY61-3606 + Bortezomib (first compound 0.2 µM), 1.19; with BAY61-3606 + Bortezomib (first compound 0.6325 µM), 1.1; in the assay with BAY61-3606 + Bortezomib (first compound 2 µM), 1.14; in the assay with BAY61-3606 + Crizotinib (first compound 0.02 µM), 0.901. The relative viability amounted to 0.756 in the assay with BAY61-3606 + Crizotinib (first compound 0.06325 µM); 0.853 in the assay with BAY61-3606 + Crizotinib (first compound 0.2 µM); 0.842 in the assay with BAY61-3606 + Crizotinib (first compound 0.6325 µM); 1.01 with BAY61-3606 + Crizotinib (first compound 2 µM); 1.45 with Doxorubicin + Bortezomib (first compound 0.001 µM); 1.21 with Doxorubicin + Bortezomib (first compound 0.003162 µM). Further, the relative viability came out at 1.28 with Doxorubicin + Bortezomib (first compound 0.01 µM); 1.27 in the assay with Doxorubicin + Bortezomib (first compound 0.03162 µM); 1.18 with Doxorubicin + Bortezomib (first compound 0.1 µM); 0.514 in the assay with Doxorubicin + AZD7762 (first compound 0.001 µM); 0.546 in the assay with Doxorubicin + AZD7762 (first compound 0.003162 µM); 0.6 with Doxorubicin + AZD7762 (first compound 0.01 µM). Further, the relative viability with Doxorubicin + AZD7762 (first compound 0.03162 µM) is 0.502; in the assay with Doxorubicin + AZD7762 (first compound 0.1 µM) it was 0.429.
With LC-2-ad, the relative viability turned out to be 1.02 in the assay with BAY61-3606 + Bortezomib (first compound 0.02 µM); 1.1 in the assay with BAY61-3606 + Bortezomib (first compound 0.06325 µM); 0.979 with BAY61-3606 + Bortezomib (first compound 0.2 µM); 1.08 with BAY61-3606 + Bortezomib (first compound 0.6325 µM); 0.907 in the assay with BAY61-3606 + Bortezomib (first compound 2 µM); 0.384 in the assay with BAY61-3606 + Crizotinib (first compound 0.06325 µM). Also, the relative viability came out at 0.447 with BAY61-3606 + Crizotinib (first compound 0.2 µM); 0.406 with BAY61-3606 + Crizotinib (first compound 0.6325 µM); 0.348 in the assay with BAY61-3606 + Crizotinib (first compound 2 µM); 1.01 with Doxorubicin + Bortezomib (first compound 0.001 µM); 0.962 with Doxorubicin + Bortezomib (first compound 0.003162 µM); 0.995 with Doxorubicin + Bortezomib (first compound 0.01 µM). Further, the relative viability with Doxorubicin + Bortezomib (first compound 0.03162 µM) came out at 0.834; in the assay with Doxorubicin + Bortezomib (first compound 0.1 µM), 0.544; with Doxorubicin + AZD7762 (first compound 0.001 µM) it was 0.831; with Doxorubicin + AZD7762 (first compound 0.003162 µM), 0.781; with Doxorubicin + AZD7762 (first compound 0.01 µM), 0.859; with Doxorubicin + AZD7762 (first compound 0.03162 µM), 0.827. Further, the relative viability with Doxorubicin + AZD7762 (first compound 0.1 µM) came to 0.725.
For CAL-12T, the relative viability in the assay with BAY61-3606 + Bortezomib (first compound 0.02 µM) is 1.2; with BAY61-3606 + Bortezomib (first compound 0.06325 µM), 0.939; with BAY61-3606 + Bortezomib (first compound 0.2 µM), 0.862; in the assay with BAY61-3606 + Bortezomib (first compound 0.6325 µM), 0.78; with BAY61-3606 + Bortezomib (first compound 2 µM), 0.799; with BAY61-3606 + Crizotinib (first compound 0.02 µM) it was 0.619. In addition, the relative viability with BAY61-3606 + Crizotinib (first compound 0.06325 µM) was 0.537; with BAY61-3606 + Crizotinib (first compound 0.2 µM), 0.493; with BAY61-3606 + Crizotinib (first compound 0.6325 µM), 0.364; in the assay with BAY61-3606 + Crizotinib (first compound 2 µM), 0.205; with Doxorubicin + Bortezomib (first compound 0.001 µM) it was 1.01; with Doxorubicin + Bortezomib (first compound 0.003162 µM), 1.06. In addition, the relative viability with Doxorubicin + Bortezomib (first compound 0.01 µM) came to 0.853; with Doxorubicin + Bortezomib (first compound 0.03162 µM), 0.567; in the assay with Doxorubicin + Bortezomib (first compound 0.1 µM), 0.307; with Doxorubicin + AZD7762 (first compound 0.001 µM), 0.727; with Doxorubicin + AZD7762 (first compound 0.003162 µM), 0.673; with Doxorubicin + AZD7762 (first compound 0.01 µM), 0.529. Moreover, the relative viability with Doxorubicin + AZD7762 (first compound 0.03162 µM) amounted to 0.668; with Doxorubicin + AZD7762 (first compound 0.1 µM) it was 0.438.
